According to BigSolDB 2.1:

O=C(O)c1ccccc1O
solubility (mole fraction)
Conditions	243.15 K	248.15 K	253.15 K	258.15 K	263.15 K	268.15 K	273.15 K	278.15 K	283.15 K
in acetone	–	–	0.0913	0.0978	0.108	0.114	0.122	0.138	0.143
in acetonitrile	0.0052	0.0061	0.0071	0.0084	0.01	0.012	0.0141	0.0159	0.0185
in ethyl acetate	–	–	0.0554	0.0651	0.075	0.086	0.09	0.099	0.107
in methanol	–	–	0.0605	0.065	0.0699	0.075	0.083	0.09	0.1

NC(=O)c1ccccc1O
solubility (mole fraction)
Conditions	243.15 K	248.15 K	253.15 K	258.15 K	263.15 K	268.15 K	273.15 K	278.15 K	283.15 K
in acetone	–	–	0.0592	0.0639	0.0703	0.077	0.0839	0.0911	0.0986
in acetonitrile	0.005	0.006	0.0071	0.0087	0.0108	0.012	0.0143	0.017	0.0199
in ethyl acetate	–	–	0.0305	0.0335	0.0374	0.0406	0.0446	0.0497	0.0547
in methanol	–	–	0.012	0.0136	0.0157	0.0181	0.0204	0.0233	0.0266
